Source: US20110263546A1, “Polyhydroxylated Bile Acids for Treatment of Biliary Disorders” (priority 2008, published 2011)
Entries after “also recorded” stand apart in the source; their conditions may differ. Like-named read-outs stand apart in the source and are kept apart here.

Assays:
wild-type mice [1] = details: for Infusion dose tolerated without death (highest dosage tested) / MTD compared with that of UDC: wild-type mice, tail vein infusion
Method: The maximum tolerated dose of bile acid according to the invention was determined. This test is carried out in two ways. First, as a pilot experiment of bile duct cannulation, a bolus of bile acid was infused into mice under anesthesia to measure its acute toxicity to animals. The responses of mice such as breath rate, bile flow rate, histological changes by H&E staining and the like were recorded. […] Using this tolerance level as a reference point, the acute toxicity of the bile acid was determined.
Bile collected was used for HPLC analysis.

wild-type mice [2] = test: Bile flow rate (BFR) by bile duct cannulation after tail vein infusion; assay type: in vivo, mouse; details: for Bile flow rate, UDC compared with THBAs at similar quantity: 65 μmol/kg body weight infusion; for Bile flow rate on infusion of increasing quantities: 65-400 μmol/kg BW (6β,7αTHBA), 65 and 200 μmol/kg BW (6α,7αTHBA)
Method: After 20 minutes of bile flow equilibration, bile was collected into pre-weighed tubes at 5-minute intervals for 10 minutes. A bolus of 3α,6α,7α,12α-tetrahydroxy-5β-cholan-24-oic acid (6α,7αTHBA, pH.7.4-7.6), 3α,6β,7α,12α-tetrahydroxy-5β-cholan-24-oic acid (6β,7αTHBA, pH.7.4-7.6), ursodeoxycholic acid (UDC, pH.7.4-7.6) or cholic acid (100 μmol/kg body weight) was then infused into the tail vein over a 20-second interval. Bile was then further collected through the cannula at 2-minute intervals for 10 or 20 minutes, followed by 10-minute intervals for 30 minutes. The bile flow rate was calculated by weighing the tubes containing the collected bile.

mice = details: cited from earlier work
[3] = tested on: TKO, bsep−/−, mdr1a/b−/− and wildtype mice; details: female TKO mice, 0.5% CA diet
Method: Mice were maintained in a 12-hour light and dark cycle, at 22° C., with free access to food and water. The mice were fed a normal diet except where specified otherwise in the results.
Chronic toxicity is tested by supplementing the diets of mice (wild-type as well as the hypersensitive bsep KO mice) with 0.1%-0.5% β-muricholate or bile acid according to the invention. Control feeding experiments use cholate as well as ursodeoxycholate.

[4] = tested on: TKO, bsep−/−, mdr1a/b−/− and wildtype mice; details: 0.5% cholate diet, cited from earlier work
[5] = mice, intravenous bolus (tail vein) infusion under anesthesia

Row | Compound | Maximum tolerated dose (MTD) (wild-type mice [1]; [5]) | Infusion dose tolerated without death (highest dosage tested) (wild-type mice [1]) | MTD compared with that of UDC (wild-type mice [1]) | Bile flow rate, UDC compared with THBAs at similar quantity (wild-type mice [2]) | Bile flow rate on infusion of increasing quantities (wild-type mice [2]) | further results
1 | C[C@H](CCC(=O)O)[C@H]1CC[C@H]2[C@@H]3[C@H](O)[C@@H](O)[C@@H]4C[C@H](O)CC[C@]4(C)[C@H]3C[C@H](O)[C@]12C [6β,7αTHBA, 3α,6β,7α,12α-tetrahydroxy-5β-cholan-24-oic acid] | > 500 μmol/kg of body weight | 500 μmol/kg of body weight | several times higher | similar | corresponding increase in bile flow rate | –
2 | C[C@H](CCC(=O)O)[C@H]1CC[C@H]2[C@@H]3[C@H](O)[C@H](O)[C@@H]4C[C@H](O)CC[C@]4(C)[C@H]3C[C@H](O)[C@]12C [6α,7αTHBA, 3α,6α,7α,12α-tetrahydroxy-5β-cholan-24-oic acid] | > 400 μmol/kg of body weight | 400 μmol/kg of body weight | several times higher | similar | corresponding increase in bile flow rate | Effect on bile flow rate (BFR) (wild-type mice [2]; bolus 100 μmol/kg body weight into tail vein): stimulates bile flow rate; also recorded: promotes bile flow
3 | C[C@H](CCC(=O)O)[C@H]1CC[C@H]2[C@@H]3[C@@H](O)C[C@@H]4C[C@H](O)CC[C@]4(C)[C@H]3CC[C@]12C [UDC, ursodeoxycholic acid, reference compound] | – | – | – | – | – | Infused dose that caused death (wild-type mice [1]; FVB/NJ, mouse, in vivo): ≥ 70 μmol/kg body weight; Maximum tolerated dose (MTD) (wild-type mice [1]; mouse, in vivo, iv): 65 μmol/kg of body weight; LD50 (mice; mouse, in vivo, iv): ~600 µmol/kg; Oral LD50 relative to intravenous LD50 (mice; rodents): at least 15 times
4 | C[C@H](CCC(=O)O)[C@H]1CC[C@H]2[C@@H]3[C@H](O)C[C@@H]4C[C@H](O)CC[C@]4(C)[C@H]3C[C@H](O)[C@]12C [CA, 3α,7α,12α-trihydroxy-5β-cholan-24-oic acid] | – | – | – | – | – | Time until terminally ill or died [3]: 3 to 7 days; Time to death ([4]; female TKO mice): within a week; Time to death ([4]; male bsep KO mice): ≤ 10 days
